# US20210000844A1, “OPHTHALMIC COMPOSITION COMPRISING DIQUAFOSOL AND CATIONIC POLYMER” (Santen Pharmaceutical Co., Ltd., priority 2018, published 2021)
# System: Cultured peripheral nerve cells (dorsal neuro ganglion neuron)
# Assay: Test 4: stimulatory property of diquafosol sodium to peripheral nerves (intracellular calcium fluorescence)
# Assay type: cell-based
# Details: stimulation control group (buffer solution instead of formulation solution); diquafosol sodium final concentration 0.3%
# Protocol: The stimulatory property of diquafosol sodium to peripheral nerves in the presence of PVP which is a type of […] was examined. “PVP” denotes polyvinylpyrrolidone. “CMC-Na” denotes carboxymethylcellulose sodium. “HPMC” denotes hydroxypropylmethylcellulose. “CVP” denotes a carboxyvinyl polymer.
# Cultured peripheral nerve cells (dorsal neuro ganglion neuron; purchased from Lonza Japan Ltd.) were incubated in a buffer solution containing an intracellular calcium indicator fluorescent dye (FLIPR Calcium 6 Assay Kit; Molecular Devices, LLC). 40% of the total amount of the buffer solution was replaced by each of the above-described formulation solutions. A non-stimulation group and a stimulation control group were similarly treated with the buffer solution instead of the formulation solution. The cells were left standing at room temperature, followed by starting fluorescence measurement over time with the calcium indicator dye using a fluorescence plate reader. 60 seconds after the start of the measurement, diquafosol sodium (final concentration: 0.3%) was added, and the measurement of fluorescence intensity was continued.
# The maximum fluorescence intensity (RFUmax) after addition of diquafosol sodium was calculated as a relative value against the fluorescence intensity (RFU) immediately before the addition, with the fluorescence intensity (RFU) defined as 100%.
structure (smiles),measurement,value
"O=c1ccn([C@@H]2O[C@H](COP(=O)([O-])OP(=O)([O-])OP(=O)([O-])OP(=O)([O-])OC[C@H]3O[C@@H](n4ccc(=O)[nH]c4=O)[C@H](O)[C@@H]3O)[C@@H](O)[C@H]2O)c(=O)[nH]1.[Na+].[Na+].[Na+].[Na+] [diquafosol sodium, diquafosol tetrasodium salt]",maximum fluorescence intensity (RFUmax) after addition of diquafosol sodium,≥ 103.5%
